From patent US9238656B2, “Imidazo[4,5-b]pyridine derivatives as ALK and JAK modulators for the treatment of proliferative disorders” (priority 2012, dated 2016)
Counter-ions that a name gives are not always drawn. Like-named read-outs stand apart in the source and are kept apart here.

Legend:
[1] = target: baculovirus-expressed JAK2 kinase (Homo sapiens, UniProt O60674); test: biochemical
How it was run: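 Time-resolved fluorescence kinase assay using 15 ng/mL baculovirus-expressed JAK2 on Neutravidin-captured biotinylated 15-mer peptide substrate, reaction 20 min at room temperature. IC50 from percent inhibition versus log concentration, sigmoidal variable-slope fit.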

[2] = target: baculovirus-expressed ALK (Homo sapiens, UniProt Q9UM73); test: ALK kinase inhibition, TRF/ELISA; type: biochemical; settings: read-out: ALK Potency
Chain of baculovirus-expressed ALK (Q9UM73 19-1620): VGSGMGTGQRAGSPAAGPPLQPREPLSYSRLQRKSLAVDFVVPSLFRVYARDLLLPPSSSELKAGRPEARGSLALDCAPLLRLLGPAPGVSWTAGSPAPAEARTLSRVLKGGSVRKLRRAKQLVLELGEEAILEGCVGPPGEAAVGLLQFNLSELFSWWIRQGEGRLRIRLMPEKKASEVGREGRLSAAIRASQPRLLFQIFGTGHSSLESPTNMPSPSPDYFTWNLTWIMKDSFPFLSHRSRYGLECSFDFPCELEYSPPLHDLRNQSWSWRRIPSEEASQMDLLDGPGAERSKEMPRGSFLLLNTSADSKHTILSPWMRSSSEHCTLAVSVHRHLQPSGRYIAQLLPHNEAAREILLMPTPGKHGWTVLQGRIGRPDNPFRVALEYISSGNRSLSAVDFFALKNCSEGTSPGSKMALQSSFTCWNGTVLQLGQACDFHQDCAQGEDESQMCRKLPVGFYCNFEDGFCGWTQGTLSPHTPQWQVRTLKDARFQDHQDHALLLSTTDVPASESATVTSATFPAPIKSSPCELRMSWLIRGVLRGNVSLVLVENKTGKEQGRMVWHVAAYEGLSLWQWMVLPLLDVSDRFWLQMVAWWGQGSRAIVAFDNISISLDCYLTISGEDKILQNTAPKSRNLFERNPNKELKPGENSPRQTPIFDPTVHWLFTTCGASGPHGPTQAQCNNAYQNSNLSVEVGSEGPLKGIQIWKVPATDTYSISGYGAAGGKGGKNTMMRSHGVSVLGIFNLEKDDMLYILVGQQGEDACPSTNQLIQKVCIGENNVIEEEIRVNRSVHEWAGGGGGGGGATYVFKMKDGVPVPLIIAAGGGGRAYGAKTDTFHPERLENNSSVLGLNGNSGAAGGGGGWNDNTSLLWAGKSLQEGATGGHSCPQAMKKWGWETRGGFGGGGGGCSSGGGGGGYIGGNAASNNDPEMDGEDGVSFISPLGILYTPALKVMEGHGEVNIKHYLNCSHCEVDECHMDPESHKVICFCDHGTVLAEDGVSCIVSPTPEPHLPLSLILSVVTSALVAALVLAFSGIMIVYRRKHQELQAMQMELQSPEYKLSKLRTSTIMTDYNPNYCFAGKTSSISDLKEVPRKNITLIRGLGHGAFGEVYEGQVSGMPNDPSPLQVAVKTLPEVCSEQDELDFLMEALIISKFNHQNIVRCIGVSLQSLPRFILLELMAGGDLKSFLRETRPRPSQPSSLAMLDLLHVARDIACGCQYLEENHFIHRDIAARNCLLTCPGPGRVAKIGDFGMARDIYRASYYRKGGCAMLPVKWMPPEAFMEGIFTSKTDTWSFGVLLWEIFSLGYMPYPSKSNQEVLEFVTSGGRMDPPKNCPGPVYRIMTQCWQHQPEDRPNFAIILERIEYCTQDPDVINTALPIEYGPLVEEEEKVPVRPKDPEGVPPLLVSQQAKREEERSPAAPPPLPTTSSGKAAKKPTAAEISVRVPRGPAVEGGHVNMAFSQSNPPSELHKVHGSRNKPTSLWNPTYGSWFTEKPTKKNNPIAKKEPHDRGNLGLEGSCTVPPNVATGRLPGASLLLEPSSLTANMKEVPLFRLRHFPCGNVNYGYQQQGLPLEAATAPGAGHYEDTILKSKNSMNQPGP
How it was run: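 Plates were coated with GST-PLC-γ substrate (10 μg/mL) and the reaction was started with 30 ng/mL ALK, running 15 min at 37° C. Phosphotyrosine was detected by time-resolved fluorescence with Eu-labeled PT66 antibody. IC50s came from variable-slope sigmoidal fits of percent inhibition versus log concentration.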

[3] = 0.2 μM ATP, read-out: JAK2 Potency

Chain of baculovirus-expressed JAK2 kinase (O60674 whole entry): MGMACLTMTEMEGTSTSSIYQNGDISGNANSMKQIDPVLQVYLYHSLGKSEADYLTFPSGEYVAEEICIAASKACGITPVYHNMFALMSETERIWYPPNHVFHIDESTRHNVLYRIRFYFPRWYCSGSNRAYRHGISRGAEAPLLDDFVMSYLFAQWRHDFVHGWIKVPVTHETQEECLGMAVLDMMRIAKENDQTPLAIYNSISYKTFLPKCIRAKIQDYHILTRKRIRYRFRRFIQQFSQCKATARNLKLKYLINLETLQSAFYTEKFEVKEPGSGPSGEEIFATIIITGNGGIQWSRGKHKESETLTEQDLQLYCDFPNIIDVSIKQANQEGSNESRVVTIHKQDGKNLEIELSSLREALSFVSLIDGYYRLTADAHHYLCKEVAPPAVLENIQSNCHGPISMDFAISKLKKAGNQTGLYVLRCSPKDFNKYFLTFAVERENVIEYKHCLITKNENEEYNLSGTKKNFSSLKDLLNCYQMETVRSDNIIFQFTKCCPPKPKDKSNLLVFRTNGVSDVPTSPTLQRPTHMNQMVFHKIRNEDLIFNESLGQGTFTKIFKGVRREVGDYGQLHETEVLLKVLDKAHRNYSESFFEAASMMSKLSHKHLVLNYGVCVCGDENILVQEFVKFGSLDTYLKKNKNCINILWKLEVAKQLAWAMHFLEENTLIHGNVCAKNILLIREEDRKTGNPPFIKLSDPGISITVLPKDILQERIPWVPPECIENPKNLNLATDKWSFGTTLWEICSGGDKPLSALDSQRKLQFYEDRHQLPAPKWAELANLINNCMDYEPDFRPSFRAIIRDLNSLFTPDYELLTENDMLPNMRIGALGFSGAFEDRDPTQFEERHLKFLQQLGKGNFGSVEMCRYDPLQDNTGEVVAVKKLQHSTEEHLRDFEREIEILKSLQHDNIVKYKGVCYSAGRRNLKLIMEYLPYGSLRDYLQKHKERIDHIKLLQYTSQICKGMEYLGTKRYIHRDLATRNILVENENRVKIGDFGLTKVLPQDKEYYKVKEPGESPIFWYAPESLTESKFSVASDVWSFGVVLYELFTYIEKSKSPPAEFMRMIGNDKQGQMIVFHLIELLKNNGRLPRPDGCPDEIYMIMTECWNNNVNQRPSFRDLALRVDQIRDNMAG

SMILES | IC50 [1, 3] [µM] | IC50 [2] [µM] | IC50 ([1]; JAK2 Potency) [µM]
CN1CCN(C(=O)COc2cccc(-c3nc4c(N[C@H]5[C@@H](C(N)=O)[C@@H]6C=C[C@H]5C6)c(Cl)cnc4[nH]3)c2)CC1 [Compound CCXLIII, (1S,2S,3R,4R)-3-(6-chloro-2-(3-(2-(4-methylpiperazin-1-yl)-2-oxoethoxy)phenyl)-3H-imidazo[4,5-b]pyridine-7-ylamino)pyridin[2.2.1]hept-5-ene-2-carboxamide] | < 0.1 | < 0.1 | –
COc1cc(OC(F)(F)F)ccc1-c1nc2c(N[C@H]3[C@@H](C(N)=O)[C@@H]4C=C[C@H]3C4)c(Cl)cnc2[nH]1 [Compound XVIII, (1S,2S,3R,4R)-3-[6-Chloro-2-(2-methoxy-4-trifluoromethoxy-phenyl)-3H-imidazo[4,5-b]pyridine-7-ylamino]-bicyclo[2.2.1]hept-5-ene-2-carboxylic acid amide] | 0.1 to 1 | < 0.1 | –
CN(C)C(=O)[C@@H]1[C@H](Nc2c(Cl)cnc3[nH]c(-c4sc(N5CCOCC5)nc4Cl)nc23)[C@H]2C=C[C@@H]1C2 [Compound CLXII, (1S,2S,3R,4R)-3-[6-Chloro-2-(4-chloro-2-morpholin-4-yl-thiazol-5-yl)-3H-imidazo[4,5-b]pyridin-7-ylamino]-bicyclo[2.2.1]hept-5-ene-2-carboxylic acid dimethylamide] | < 0.1 | < 0.1 | –
NC(=O)[C@@H]1[C@H](Nc2c(Br)cnc3[nH]c(-c4ccc5c(c4)CCC4(CCNCC4)O5)nc23)[C@H]2C=C[C@@H]1C2 [Compound CXIV, (1S,2S,3R,4R)-3-[(6-bromo-2-spiro[chromane-2,4′-piperidine]-6-yl-3H-imidazo[4,5-b]pyridin-7-yl)amino]bicyclo[2.2.1]hept-5-ene-2-carboxamide] | < 0.1 | < 0.1 | –
CN(C)CCOc1ccc(-c2nc3c(N[C@H]4[C@@H](C(=O)N(C)C)[C@@H]5C=C[C@H]4C5)c(Cl)cnc3[nH]2)cc1 [Compound CLXXVII, (1S,2S,3R,4R)-3-[6-Chloro-2-[4-(2-dimethylamino-ethoxy)-phenyl]-3H-imidazo[4,5-b]pyridin-7-ylamino]-bicyclo[2.2.1]hept-5-ene-2-carboxylic acid dimethylamide] | < 0.1 | 0.1 to 1 | –
Cn1cc(-c2nc3c(NC45CCC(C)(C(=O)C4)C5(C)C)c(Cl)cnc3[nH]2)cn1 (stereo not shown) [Compound CXCIX, 4-(6-chloro-2-(1-methyl-1H-pyrazol-4-yl)-3H-imidazo[4,5-b]pyridin-7-ylamino)-1,7,7-trimethylbicyclo[2.2.1]heptan-2-one] | < 0.1 | 1 to 10 | –
CN1CCC(c2nc3c(N[C@H]4[C@@H](C(N)=O)[C@@H]5C=C[C@H]4C5)c(Cl)cnc3[nH]2)CC1 [Compound CL, (1S,2S,3R,4R)-3-[6-Chloro-2-(1-methyl-piperidin-4-yl)-3H-imidazo[4,5-b]pyridin-7-ylamino]-bicyclo[2.2.1]hept-5-ene-2-carboxylic acid amide] | > 10 | 1 to 10 | –
CN1CCN(C(=O)c2cccc(-c3nc4c(N[C@H]5[C@@H](C(N)=O)[C@@H]6C=C[C@H]5C6)c(Cl)cnc4[nH]3)c2)CC1 [Compound CCXXI, (1S,2S,3R,4R)-3-(6-chloro-2-(3-(4-methylpiperazine-1-carbonyl)phenyl)-3H-imidazo[4,5-b]pyridin-7-ylamino)bicyclo[2.2.1]hept-5-ene-2-carboxamide] | < 0.1 | 0.1 to 1 | –
NC(=O)[C@@H]1[C@H](Nc2c(Cl)cnc3[nH]c(-c4ccc(N5CCOCC5)cc4)nc23)[C@H]2CC[C@@H]1O2 [Compound CCIV, (1S,2R,3S,4R)-3-(6-chloro-2-(4-morpholinophenyl)-3H-imidazo[4,5-b]pyridin-7-ylamino)-7-oxabicyclo[2.2.1]heptane-2-carboxamide] | < 0.1 | 1 to 10 | –
COc1cc(N2CCOCC2)ccc1-c1nc2c(N3C[C@@H]4C[C@H]3CN4)c(Cl)cnc2[nH]1 [Compound XXXVII, 6-Chloro-7-(1S,4S)-2,5-diaza-bicyclo[2.2.1]hept-2-yl-2-(2-methoxy-4-morpholin-4-yl-phenyl)-3H-imidazo[4,5-b]pyridine hydrochloride] | – | > 10 | 1 to 10
Cc1cc(N2CCOCC2)ccc1-c1nc2c(N[C@H]3[C@@H](C(N)=O)[C@@H]4C=C[C@H]3C4)c(Cl)cnc2[nH]1 [Compound CXXI, (1S,2S,3R,4R)-3-[6-Chloro-2-(2-methyl-4-morpholin-4-yl-phenyl)-3H-imidazo[4,5-b]pyridin-7-ylamino]-bicyclo[2.2.1]hept-5-ene-2-carboxylic acid amide] | < 0.1 | 0.1 to 1 | –
COc1cc(CN(C)C)ccc1-c1nc2c(N[C@H]3[C@@H](C(N)=O)[C@@H]4C=C[C@H]3C4)c(Cl)cnc2[nH]1 [Compound XLVI, (1S,2S,3R,4R)-3-[6-Chloro-2-(4-dimethylaminomethyl-2-methoxyphenyl)-3H-imidazo[4,5-b]pyridine-7-ylamino)-bicyclo[2.2.1]hept-5-ene-2-carboxylic acid amide, trifluoroacetic acid salt] | < 0.1 | < 0.1 | –
Cn1cc(-c2nc3c(N[C@H]4[C@@H](C(N)=O)[C@@H]5CC[C@H]4O5)c(Cl)cnc3[nH]2)cn1 [Compound CCV, (1S,2R,3S,4R)-3-(6-chloro-2-(1-methyl-1H-pyrazol-4-yl)-3H-imidazo[4,5-b]pyridin-7-ylamino)-7-oxabicyclo[2.2.1]heptane-2-carboxamide] | 0.1 to 1 | > 10 | –
NC(=O)[C@@H]1[C@H](Nc2c(Br)cnc3[nH]c(-c4cccc(Cl)c4)nc23)[C@H]2C=C[C@@H]1C2 [Compound CXLII, (1S,2S,3R,4R)-3-[6-Bromo-2-(3-chloro-phenyl)-3H-imidazo[4,5-b]pyridin-7-ylamino]-bicyclo[2.2.1]hept-5-ene-2-carboxylic acid amide] | < 0.1 | 0.1 to 1 | –
NC(=O)[C@@H]1[C@H](Nc2c(Cl)cnc3[nH]c(-c4cn5c(n4)CCCC5)nc23)[C@H]2C=C[C@@H]1C2 [Compound CCXIII, (1S,2S,3R,4R)-3-(6-chloro-2-(5,6,7,8-tetrahydroimidazo[1,2-a]pyridin-2-yl)-3H-imidazo[4,5-b]pyridin-7-ylamino)bicyclo[2.2.1]hept-5-ene-2-carboxamide] | < 0.1 | 0.1 to 1 | –
CC(=O)N1CCN(Cc2ccc(-c3nc4c(N[C@H]5[C@@H](C(N)=O)[C@@H]6C=C[C@H]5C6)c(Cl)cnc4[nH]3)cc2)CC1 [Compound CLVII, (1S,2S,3R,4R)-3-{2-[4-(4-Acetyl-piperazin-1-ylmethyl)-phenyl]-6-chloro-3H-imidazo[4,5-b]pyridin-7-ylamino}-bicyclo[2.2.1]hept-5-ene-2-carboxylic acid amide] | < 0.1 | < 0.1 | –
NC(=O)[C@@H]1[C@H](Nc2c(Br)cnc3[nH]c(-c4sc(N5CCCC5)nc4Cl)nc23)[C@H]2C=C[C@@H]1C2 [Compound CLXVII, (1S,2S,3R,4R)-3-[6-Bromo-2-(4-chloro-2-pyrrolidin-1-yl-thiazol-5-yl)-3H-imidazo[4,5-b]pyridin-7-ylamino]-bicyclo[2.2.1]hept-5-ene-2-carboxylic acid amide] | < 0.1 | < 0.1 | –
NC(=O)[C@@H]1[C@H](Nc2c(Cl)cnc3[nH]c(-c4cccc(-n5cccn5)c4)nc23)[C@H]2C=C[C@@H]1C2 [Compound CXXV, (1S,2S,3R,4R)-3-[6-Chloro-2-(3-pyrazol-1-yl-phenyl)-3H-imidazo[4,5-b]pyridin-7-ylamino]-bicyclo[2.2.1]hept-5-ene-2-carboxylic acid amide] | < 0.1 | 1 to 10 | –
CN1CCN(c2ncc(-c3nc4c(N[C@H]5[C@@H](C(N)=O)[C@@H]6C=C[C@H]5C6)c(Cl)cnc4[nH]3)s2)CC1 [Compound CCXI, (1S,2S,3R,4R)-3-(6-chloro-2-(2-(4-methylpiperazin-1-yl)thiazol-5-yl)-3H-imidazo[4,5-b]pyridin-7-ylamino)bicyclo[2.2.1]hept-5-ene-2-carboxamide] | < 0.1 | < 0.1 | –
CC(O)CN1CCN(C(=O)COc2cccc(-c3nc4c(N[C@H]5[C@@H](C(N)=O)[C@@H]6C=C[C@H]5C6)c(Cl)cnc4[nH]3)c2)CC1 (stereo partly drawn) [Compound CCXLI, (1S,2S,3R,4R)-3-(6-chloro-2-(3-(2-(4-(2-hydroxypropyl)piperazin-1-yl)-2-oxoethoxy)phenyl)-3H-imidazo[4,5-b]pyridin-7-ylamino)bicyclo[2.2.1]hept-5-ene-2-carboxamide] | < 0.1 | 0.1 to 1 | –
COc1cc(N2CCOCC2)ccc1-c1nc2c(N3C[C@@H]4C[C@H]3CN4C(=O)OC(C)(C)C)c(Cl)cnc2[nH]1 [Compound XXXVI, (1S,4S)-5-[6-Chloro-2-(2-methoxy-4-morpholinj-4-yl-phenyl)-3H-imidazol-[4,5-b]pyridine-7-yl]-2,5-diaza-bicyclo[2.2.1]heptane-2-carboxylic acid tert-butyl ester] | 1 to 10 | > 10 | –
CN(C)C(=O)[C@@H]1[C@H](Nc2c(Cl)cnc3[nH]c(-c4sc(N5CC[C@@H](O)C5)nc4Cl)nc23)[C@H]2C=C[C@@H]1C2 [Compound CLXVIII, (1S,2S,3R,4R)-3-{6-Chloro-2-[4-chloro-2-((R)-3-hydroxy-pyrrolidin-1-yl)-thiazol-5-yl]-3H-imidazo[4,5-b]pyridin-7-ylamino}-bicyclo[2.2.1]hept-5-ene-2-carboxylic acid dimethylamide] | < 0.1 | < 0.1 | –
NC(=O)[C@@H]1[C@H](Nc2c(Cl)cnc3[nH]c(-c4ccc(Cl)cc4)nc23)[C@H]2C=C[C@@H]1C2 [Compound CXLI, (1S,2S,3R,4R)-3-[6-Chloro-2-(4-chloro-phenyl)-3H-imidazo[4,5-b]pyridin-7-ylamino]-bicyclo[2.2.1]hept-5-ene-2-carboxylic acid amide] | < 0.1 | 0.1 to 1 | –
